In ChEMBL document CHEMBL1156050, “Synthesis and evaluation of 9-aminoacridines derived from benzyne click chemistry” (Bioorg Med Chem Lett, 2009) one finds IC50, log K and C50 data, which are given here for eight compounds.

In experiment [1] the test system is HL-60. Put plainly: Cytotoxicity against human HL60 cells. Type of experiment: functional, cell-based.
In experiment [2] the test system is Nucleic Acid. Put plainly: Binding affinity to DNA. The class given is nucleic-acid assay.
Experiment [3] relates to Nucleic Acid. Put plainly: Displacement of ethidium bromide from DNA by titration.
The mark [4] stands for this setting: Homo sapiens, HL-60, read-out: IC50.

SMILES strings stand for the structures.

In the case of `CN(C)CCNC(=O)c1cccc2c(NCCN=[N+]=[N-])c3ccccc3nc12`, the IC50 (as a rule, the point on the concentration scale where inhibition reaches its midpoint) in experiment [1] (setting [4]) is 0.72 µM. In addition, the log K in experiment [2] came to 6.49. This compound had a C50 in experiment [3] of 13.6 µM.

With `CN1CCN(C(=O)c2cccc3c(NCCN=[N+]=[N-])c4ccccc4nc23)CC1`, the IC50 in experiment [1] (setting [4]) came out at 52 µM. The compound further came in with a C50 in experiment [3] above 200 µM.

Consider `CN1CCN(C(=O)c2ccc3c(NCCN=[N+]=[N-])c4ccccc4nc3c2)CC1`, for which the IC50 in experiment [1] (setting [4]) was found to be 45.7 µM. This compound also came in with a C50 in experiment [3] above 200 µM.

Take `CN(C)CCNC(=O)c1ccc2c(NCCN=[N+]=[N-])c3ccccc3nc2c1`: in experiment [1] (setting [4]), the IC50 worked out at 5.4 µM. In addition, in experiment [2], the log K amounted to 6.37. In experiment [3], the C50 amounted to 17.6 µM.

For the compound `CN1CCN(C(=O)c2ccc3c(NCCn4nnc5ccccc54)c4ccccc4nc3c2)CC1`, the IC50 entry in experiment [1] (hl-60) is listed as “Not Active”. The compound further came in with a log K in experiment [2] of 6.2. The compound further registered a C50 in experiment [3] of 26.2 µM.

For `CN(C)CCNC(=O)c1ccc2c(NCCn3nnc4ccccc43)c3ccccc3nc2c1`, the IC50 in experiment [1] (setting [4]) was 262 µM. For the same compound, the log K in experiment [2] was 6.54. Besides, the C50 in experiment [3] was 12.1 µM.

As for `CN1CCN(C(=O)c2cccc3c(NCCn4nnc5ccccc54)c4ccccc4nc23)CC1`, in experiment [1] (hl-60), the IC50 entry is given as “Not Active”. For the same compound, the log K in experiment [2] is 5.65. Besides, in experiment [3], the C50 amounted to 93.2 µM.

Turning to `CN(C)CCNC(=O)c1cccc2c(NCCn3nnc4ccccc43)c3ccccc3nc12`, in experiment [1] (setting [4]), the IC50 stood at 23.4 µM. In experiment [2], this compound registered a log K of 6.14. Moreover, the C50 in experiment [3] worked out at 30 µM.
